Reference: US4528133A, “Biologically active tripeptide and tetrapeptide alkylamides, and method for the preparation thereof” (SPOFA, spojene podniky pro zdravotnickou vyrobu, priority 1982, dated 1985)
Read-outs that look alike come from different tables or passages of the source. Where a SMILES comes first, the peptide text is derived from it. The star is where a group is joined. Undecanoyl = CCCCCCCCCCC(=O)*; Cbz = O=C(OCc1ccccc1)*; Butyryl = CCCC(=O)*; NHiBu = CC(C)CN*; NHPr = CCCN*

Experiments:
pancreatic elastase = pancreatic elastase (UniProt P00772); test: Inhibition of pancreatic elastase (PE), Ki with synthetic nitroanilide substrates; assay type: biochemical
leucocytal elastase = molecular target: T1, leucocytal elastase (Homo sapiens, UniProt P08246); test: Inhibition of leucocytal elastase (LE), Ki with synthetic nitroanilide substrate; assay type: biochemical; conditions: substrate Glt-(Ala)3-Val-Nan; for Ki: read-out: Inhibition constant Ki, LE, Glt--(Ala)3--Val--Nan
T1 sequence (P08246 30-267): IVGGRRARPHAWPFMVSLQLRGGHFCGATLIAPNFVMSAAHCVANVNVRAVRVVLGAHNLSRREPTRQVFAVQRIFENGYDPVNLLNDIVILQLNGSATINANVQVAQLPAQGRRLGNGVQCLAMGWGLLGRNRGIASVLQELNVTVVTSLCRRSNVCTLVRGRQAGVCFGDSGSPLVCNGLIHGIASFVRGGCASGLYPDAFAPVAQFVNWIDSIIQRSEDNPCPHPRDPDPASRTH

[1] = substrate Glt-(Ala)4-Nan, read-out: Inhibition constant Ki, PE, Glt--(Ala)4--Nan
[2] = substrate Suc-(Ala)4-Nan, read-out: Inhibition constant Ki, PE, Suc--(Ala)4--Nan

Sequence of pancreatic elastase (P00772 27-266): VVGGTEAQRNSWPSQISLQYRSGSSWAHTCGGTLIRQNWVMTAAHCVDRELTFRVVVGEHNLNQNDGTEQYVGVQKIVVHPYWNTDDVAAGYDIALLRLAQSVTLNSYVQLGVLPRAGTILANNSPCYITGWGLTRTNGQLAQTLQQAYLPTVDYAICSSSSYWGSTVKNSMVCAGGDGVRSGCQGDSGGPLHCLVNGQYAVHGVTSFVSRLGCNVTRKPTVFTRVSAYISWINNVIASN

What does the source list for `CCNC(=O)[C@H](C)NC(=O)[C@H](C)NC(=O)[C@@H]1CCCN1C(=O)[C@H](CC(=O)O)NC(C)=O` [Ac--Asp--Pro--Ala--Ala--NH--Et, N^α -Acetylaspartyl-prolyl-alanyl-alanine ethylamide] (Ac-DPAA-NHEt)?
Ki (pancreatic elastase; [1]): 34 µM; Ki (pancreatic elastase; [2]): 25 µM; Ki (leucocytal elastase): 1000 µM

With `CCCC(=O)N[C@@H](CC(=O)O)C(=O)N[C@@H](C)C(=O)N[C@@H](C)C(=O)N1CCC[C@H]1C(=O)NCC(C)C` [Btr--Asp--Ala--Ala--Pro--NH--iBu, N^α -Butyrylaspartyl-alanyl-alanyl-proline isobutylamide] (Butyryl-DAAP-NHiBu) as the compound, how does the Ki (pancreatic elastase; [1]) read?
The Ki was 120 µM.

And the Ki (pancreatic elastase; [2])?
Its Ki is 120 µM.

What about the Ki (leucocytal elastase) of the same compound?
The Ki was 136 µM.

What does the source list for `CCCNC(=O)[C@@H]1CCCN1C(=O)[C@H](C)NC(=O)[C@H](C)NC(=O)[C@H](CCC(=O)O)NC(=O)CCC` [Btr--Glu--Ala--Ala--Pro--NH--Pr] (Butyryl-EAAP-NHPr)?
Ki (pancreatic elastase; [1]): 193 µM; Ki (pancreatic elastase; [2]): 178 µM; Ki (leucocytal elastase): 180 µM

Which Ki (pancreatic elastase; [1]) does the source give for `CCCCCCCCCC=CCC(CC(=O)O)C(=O)N[C@@H](C)C(=O)N[C@@H](C)C(=O)N[C@@H](C)C(=O)NCC` (some centres unmarked) [Dde--Ala--Ala--Ala--NH--Et, N-(2-Dodecenylsuccinyl)alanyl-alanyl-alanine ethylamide] here?
Its Ki is 1.8 µM.

What about the Ki (pancreatic elastase; [2]) of the same compound?
Its Ki is 2.5 µM.

What about the “Inhibition constant Ki, LE, Glt--(Ala)3--Val--Nan” value (leucocytal elastase) of the same compound?
The value was “no inhibition”.

How did the Ki (pancreatic elastase; [1]) turn out when `CCCCCCCCCC=CCC(CC(=O)O)C(=O)N[C@@H](C)C(=O)N[C@@H](C)C(=O)N[C@@H](C)C(=O)NCC(C)C` (some centres unmarked) [Dde--Ala--Ala--Ala--NH--iBu] was run?
Its Ki is 93 µM.

What about the Ki (pancreatic elastase; [2]) of the same compound?
The Ki was 99 µM.

And the Ki (leucocytal elastase)?
The Ki was 515 µM.

Which results are given for `CCCCCCCCCC=CCC(CC(=O)O)C(=O)N[C@@H](C)C(=O)N[C@@H](C)C(=O)N1CCC[C@H]1C(=O)NCCC` (some centres unmarked) [Dde--Ala--Ala--Pro--NH--Pr, N-(2-Dodecenylsuccinyl)alanyl-alanyl-proline propylamide]?
Ki (pancreatic elastase; [1]): 0.6 µM; Ki (pancreatic elastase; [2]): 0.5 µM; Ki (leucocytal elastase): 100 µM

Which Ki (pancreatic elastase; [1]) does the source give for `CCCCCCCCCCC(=O)N[C@@H](CC(=O)O)C(=O)N[C@@H](C)C(=O)N[C@@H](C)C(=O)N1CCC[C@H]1C(=O)NCC` [UDA--Asp--Ala--Ala--Pro--NH--Et, N^α -Undecanoylaspartyl-alanyl-alanyl-proline ethylamide] (Undecanoyl-DAAP-NHEt) here?
The Ki was 5.4 µM.

What about the Ki (leucocytal elastase) of the same compound?
The Ki was 12 µM.

Which results are given for `CCNC(=O)[C@H](C)NC(=O)[C@H](C)NC(=O)[C@H](C)NC(=O)[C@H](CCC(=O)O)NC(=O)OCc1ccccc1` [Z--Glu--Ala--Ala--Ala--NH--Et] (Cbz-EAAA-NHEt)?
Ki (pancreatic elastase; [1]): 173 µM; Ki (pancreatic elastase; [2]): 28 µM; Ki (leucocytal elastase): 720 µM
